US12421212B2, “Substituted benzenecarboxamides as IL-17A modulators” (DiCE Alpha, Inc., priority 2019, dated 2025)

What follows are compounds tested against T1, IL-17A/A (Homo sapiens, UniProt Q16552) (assay: IL-17A/A HEK-Blue Cell Assay). Conditions: HEK-Blue IL-17A reporter cell line, SEAP readout at A630, 20 hours incubation with IL-17A/A; top concentration 10 uM, 1 uM or 0.3 uM.
T1 construct: purchased Genscript Z03228
T1 sequence (Q16552 24-155): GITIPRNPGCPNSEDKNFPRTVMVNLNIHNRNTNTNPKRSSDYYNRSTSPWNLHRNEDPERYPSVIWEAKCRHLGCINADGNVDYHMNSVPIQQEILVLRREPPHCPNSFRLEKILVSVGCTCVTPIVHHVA
Type: cell-based
Method: The HEK-Blue IL-17A reporter cell line (Fisher #NC1408637) was used for cell-based IL-17A/A inhibition assays. Cells were grown and prepared for assays according to the manufacturer's instructions. This cell line consists of HEK 293 cells that were designed to expressed IL-17RA, IL-17RC, and the ActI adapter molecule, the combination of which, when stimulated by IL-17A/A activates a NFκB promoter and drives expression of a recombinant Secreted Alkaline Phosphatase (SEAP) geneprotein. Media from the cells is then added to a development reagent (Quanti-Blue Substrate, Fisher #NC9711613), and read at A630.
Compounds were titrated in DMSO, with a top final compound concentration of 10 uM, 1 uM, or 0.3 uM, and added to the cells immediately before adding IL-17A/A (Genscript #Z03228). The cells, compound, and IL-17A/A were then incubated for 20 hours before media was removed for SEAP analysis. The resulting inhibition curve was then analyzed using Graphpad Prism 7.0, and IC50 values were determined using a 4-parameter nonlinear fit. DMSO was added to a universal final concentration of 0.1% to optimize background.

`CCC(=O)N[C@@H](C(=O)N1CCN(C)CC1)[C@@H](C)c1ccc(NC(=O)C(NC(=O)c2ccnn2CC)C(OC)c2ccc(F)cc2)c(F)c1` (single isomer, unassigned) [Compound 608] was tested, and the “IL-17A/A inhibition (pIC50)” value was “X3b (compounds were evaluated up to 0.3 uM and inhibited activity at 0.3 uM by less than 20%)”.
`CCC(=O)N[C@@H](C(=O)N1CCN(C)CC1)[C@@H](C)c1ccc(NC(=O)C(NC(=O)c2nonc2CC)C(OC)c2ccc(F)cc2)c(F)c1` (single isomer, unassigned) [Compound 609] was tested, and the “IL-17A/A inhibition (pIC50)” value was “X2b (compounds were evaluated up to 1 uM and inhibited activity at 1 uM by less than 20%)”.
`CCC(=O)N[C@@H](C(=O)N1CCN(C)CC1)[C@@H](C)c1ccc(NC(=O)C(NC(=O)c2nonc2CC)C(C)C2CCC(C)CC2)c(F)c1` (single isomer, unassigned) [Compound 613] was tested, and the “IL-17A/A inhibition (pIC50)” value was “X2b (compounds were evaluated up to 1 uM and inhibited activity at 1 uM by less than 20%)”.
In the case of `CCC(=O)NC(C(=O)NCC1CCC1)C(C)c1ccc(NC(=O)[C@@H](NC(=O)c2ccnn2CC)[C@H]2CC[C@H](C)CC2)c(F)c1` (single isomer, unassigned) [Compound 662], the “IL-17A/A inhibition (pIC50)” value was “X3a (compounds were evaluated up to 0.3 uM and did not inhibit activity by >80%, however they showed some activity at 0.3 uM (less than 80% and more than 20%))”.
For `CCC(=O)NC(C(=O)N1CCN(Cc2ccccc2)CC1)C(C)c1ccc(NC(=O)[C@@H](NC(=O)c2ccnn2CC)[C@H]2CC[C@H](C)CC2)c(F)c1` (single isomer, unassigned) [Compound 663], the “IL-17A/A inhibition (pIC50)” value was “X3b (compounds were evaluated up to 0.3 uM and inhibited activity at 0.3 uM by less than 20%)”.
In the case of `CCC(=O)N[C@@H](C(=O)N1CCN(C)CC1)[C@@H](C)c1ccc(NC(=O)C(NC(=O)c2ccnn2CC)C2CCc3ccccc32)c(F)c1` (single isomer, unassigned) [Compound 753], the “IL-17A/A inhibition (pIC50)” value was “X2b (compounds were evaluated up to 1 uM and inhibited activity at 1 uM by less than 20%)”.

Same assay, conditions: HEK-Blue IL-17A reporter cell line, SEAP readout at A630, 20 hours incubation with IL-17A/A; top concentration 10 uM, 1 uM or 0.3 uM; read-out: IL-17A/A inhibition (pIC50) (converted)

`CCc1nonc1C(=O)N[C@H](C(=O)Nc1ccc([C@H](C)C(NC(=O)C(C)F)C(=O)N2CCN(C)[C@@H](C)C2)cc1F)[C@H]1CC[C@H](C)CC1` (single isomer, unassigned) [Compound 595] and `CCc1nonc1C(=O)N[C@H](C(=O)Nc1ccc([C@H](C)C(NC(=O)C(C)F)C(=O)N2CCN(C)[C@H](C)C2)cc1F)[C@H]1CC[C@H](C)CC1` (single isomer, unassigned) [Compound 598] fall in the same range of IC50: 10 to 100 nM for the first, 10 to 100 nM for the second.

Compared with `CCn1nccc1C(=O)N[C@H](C(=O)Nc1ccc([C@H](C)C(NC(=O)C(C)F)C(=O)N2CCN(C)[C@H](C)C2)cc1F)[C@H]1CC[C@H](C)CC1` (single isomer, unassigned) [Compound 596], `CCn1nccc1C(=O)N[C@H](C(=O)Nc1ccc([C@H](C)C(NC(=O)C(F)C2CC2)C(=O)N2CCN(C)[C@H](C)C2)cc1F)[C@H]1CC[C@H](C)CC1` (single isomer, unassigned) [Compound 602] is lower in IC50: 10 to 100 nM for the first, under 10 nM for the second.

`CCc1nonc1C(=O)N[C@H](C(=O)Nc1ccc([C@H](C)C(NC(=O)C(C)F)C(=O)N2CCN(C)[C@H](C)C2)cc1F)[C@H]1CC[C@H](C)CC1` (single isomer, unassigned) [Compound 599] and `CCc1nonc1C(=O)N[C@H](C(=O)Nc1ccc([C@H](C)C(NC(=O)C(F)C2CC2)C(=O)N2CCN(C)[C@H](C)C2)cc1F)[C@H]1CC[C@H](C)CC1` (single isomer, unassigned) [Compound 600] cannot be ordered by IC50: under 10 nM for the first, under 10 nM for the second.

Compared with `CCC(=O)N[C@@H](C(=O)N1CCN(C)CC1)[C@@H](C)c1ccc(NC(=O)C(NC(=O)c2ccnn2CC)C(C)C2CCC(F)(F)CC2)c(F)c1` (single isomer, unassigned) [Compound 606], `CCC(=O)N[C@@H](C(=O)N1CCN(C)CC1)C(OC)c1ccc(NC(=O)[C@@H](NC(=O)c2ccnn2CC)[C@H]2CC[C@H](C)CC2)c(F)c1` (single isomer, unassigned) [Compound 614] is higher in IC50: 10 to 100 nM for the first, 100 to 10000 nM for the second.

First: [2H]C([2H])([2H])C1CCC(C(NC(=O)c2nonc2CC)C(=O)Nc2ccc([C@H](C)[C@@H](NC(=O)N(C)C3CC3)C(=O)N3CCN(C)[C@H](C)C3)cc2F)CC1 (single isomer, unassigned) [Compound 615]
Second: CCC(=O)N[C@@H](C(=O)N1CCN(C)CC1)[C@@H](C)c1ccc(NC(=O)[C@@H](NC(=O)C(F)(F)c2ccc(OC)nc2)C2CCCCC2)c(F)c1 [Compound 218]
The IC50 of the first is lower: under 10 nM for the first, 10 to 100 nM for the second.

Compared with `CCC(=O)N[C@@H](C(=O)N1CCN(C)CC1)[C@@H](C)c1ccc(NC(=O)C(NC(=O)c2ccnn2CC)C2CCc3cc(F)cc(F)c32)c(F)c1` (single isomer, unassigned) [Compound 809], `CCC(=O)N[C@@H](C(=O)N1CCN(C)CC1)[C@@H](C)c1ccc(NC(=O)[C@@H](NC(=O)C(F)(F)c2ccc(OC)nc2)C2CCC(F)(F)CC2)c(F)c1` [Compound 220] is higher in IC50: under 10 nM for the first, 10 to 100 nM for the second.

First: CCC(=O)N[C@H](Cc1ccc(NC(=O)[C@@H](NC(=O)C(F)(F)c2ccc(OC)nc2)C2CCCCC2)c(F)c1)C(=O)N1CCN(C)CC1 [Compound 203]
Second: CCC(=O)N[C@H](Cc1ccc(NC(=O)[C@@H](NC(=O)C(F)(F)c2ccc(OC)nc2)C2CCCCCC2)c(F)c1)C(=O)N1CCN(C)CC1 [Compound 214]
The IC50 of the first is higher: 100 to 10000 nM for the first, 10 to 100 nM for the second.

`CCC(=O)N[C@H](Cc1ccc(NC(=O)[C@@H](NC(=O)C(F)(F)c2ccccc2)C2CCCCC2)c(F)c1)C(=O)N1CCN(C)CC1` [Compound 204] and `CCC(=O)N[C@H](Cc1ccc(NC(=O)[C@@H](NC(=O)C(F)(F)c2cccnc2)C2CCCCC2)c(F)c1)C(=O)N1CCN(C)CC1` [Compound 205] fall in the same range of IC50: 100 to 10000 nM for the first, 100 to 10000 nM for the second.

`CCC(=O)N[C@H](Cc1ccc(NC(=O)[C@@H](NC(=O)C(F)(F)c2ccc(OC)cc2)C2CCCCC2)c(F)c1)C(=O)N1CCN(C)CC1` [Compound 206] and `CCC(=O)N[C@H](Cc1ccc(NC(=O)[C@@H](NC(=O)C(F)(F)c2ccc(C)cc2)C2CCCCC2)c(F)c1)C(=O)N1CCN(C)CC1` [Compound 210] fall in the same range of IC50: 100 to 10000 nM for the first, 100 to 10000 nM for the second.

`CCC(=O)N[C@H](Cc1ccc(NC(=O)[C@@H](NC(=O)C(F)(F)c2cccc(OC)c2)C2CCCCC2)c(F)c1)C(=O)N1CCN(C)CC1` [Compound 207] and `CCC(=O)N[C@H](Cc1ccc(NC(=O)[C@@H](NC(=O)C(F)(F)c2ccc(C)nc2)C2CCCCC2)c(F)c1)C(=O)N1CCN(C)CC1` [Compound 208] fall in the same range of IC50: 100 to 10000 nM for the first, 100 to 10000 nM for the second.

`CCC(=O)N[C@H](Cc1ccc(NC(=O)[C@@H](NC(=O)C(F)(F)c2ccc(Cl)cc2)C2CCCCC2)c(F)c1)C(=O)N1CCN(C)CC1` [Compound 211] and `CCC(=O)N[C@H](Cc1ccc(NC(=O)[C@@H](NC(=O)C(F)(F)c2ccc(=O)[nH]c2)C2CCCCC2)c(F)c1)C(=O)N1CCN(C)CC1` [Compound 217] fall in the same range of IC50: 100 to 10000 nM for the first, 100 to 10000 nM for the second.

`CCC(=O)N[C@H](Cc1ccc(NC(=O)[C@@H](NC(=O)C(F)(F)c2cncs2)C2CCCCC2)c(F)c1)C(=O)N1CCN(C)CC1` [Compound 213] and `CCC(=O)N[C@H](Cc1ccc(NC(=O)[C@@H](NC(=O)C(F)(F)c2ccc(OC)nc2)[C@H]2CC[C@H](C)CC2)c(F)c1)C(=O)N1CCN(C)CC1` [Compound 216] fall in the same range of IC50: 100 to 10000 nM for the first, 100 to 10000 nM for the second.

Compared with `CCC(=O)N[C@H](Cc1ccc(NC(=O)[C@@H](NC(=O)C(F)(F)c2ccc(OC)nc2)C2CCC(F)(F)CC2)c(F)c1)C(=O)N1CCN(C)CC1` [Compound 215], `CCC(=O)N[C@@H](C(=O)N1CCN(C)CC1)[C@@H](C)c1ccc(NC(=O)[C@@H](NC(=O)C(F)(F)c2ccc(OC)nc2)C2CCCCCC2)c(F)c1` [Compound 219] is lower in IC50: 100 to 10000 nM for the first, 10 to 100 nM for the second.
